Source: patent US20260209260A1, “VECTORIZED NHC IRIDIUM(III) COMPLEXES AND USE THEREOF IN PHOTODYNAMIC THERAPY AND/OR DIAGNOSTIC” (CENTRE NATIONAL DE LA RECHERCHE SCIENTIFIQUE, priority 2022, published 2026)
Several values for one entry are separate records, joined by “and”; a condition that tells them apart may be missing. Equal values may be shown once. Read-outs that look alike come from different tables or passages of the source.

Legend:
[1] = Lipophilicity: octanol-water partition coefficient, shake-flask method
Summary of the method: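 Octanol and water mutually pre-saturated for 24 h; compound ([…] stock in aqueous phase) partitioned against equal volume n-octanol, mixed 15 min, phases separated by centrifugation.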

[2] = UV/Vis absorption spectra; format: physicochemical; conditions: room temperature, air-saturated CH2Cl2 or CH2Cl2/MeOH (1:1), 50 μM; ε in brackets, sh = shoulder
Procedure: UV/Vis absorption spectra were recorded at RT on solutions contained in quartz cuvettes (optical pathlength 1 cm, Hellma®) with a PerkinElmer® UV/VIS/NIR spectrophotometer Lambda 950 and a PerkinElmer® detector UV/VIS/NIR Accessory 2D Detector Module.

[3] = Luminescence emission spectra and quantum yield; format: physicochemical; conditions: for ΦP emission phosphorescence quantum yield: room temperature, reference POPOP in hexane or rhodamine B in ethanol; for λem: CH2Cl2, room temperature, λexc 365 nm or 470 nm
Summary of the method: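 Relative luminescence quantum yields (Demas–Crosby) were derived from integrated emission areas of sample versus reference standard, with solvent refractive-index correction, on RT solutions. Emission spectra, fluorescence and phosphorescence, were taken for the complexes in CH2Cl2 at room temperature.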

[4] = Emission lifetime measurement; format: physicochemical
Summary of the method: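 Time-correlated single-photon counting with 0.5 ns resolution, using D2-lamp or 405 nm pulsed-diode-laser excitation, gave the lifetimes; quoted uncertainty is 5%.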

[5] = test system: MC3T3 osteoblast cells (non-tumor); test: Cell viability assay (MTT), dark and blue light; format: cell-based, Murine; conditions: for Photosensitizing index (PI) MC3T3: dark vs blue light 458 nm
Summary of the method: (§1)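 Viability determined by MTT assay (A570) after 72 h treatment in 0.1% DMSO, with or without a 10 min irradiation at 8 h. Data from at least three independent experiments run in triplicate.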

[6] = test system: NIH-3T3 fibroblast cells (non-tumor); test: Cell viability assay (MTT), dark and blue light; format: cell-based, Murine; conditions: for Photosensitizing index (PI) NIH-3T3: dark vs blue light 458 nm
Summary of the method: as §1

[7] = test system: A549 lung cancer cells; test: Cell viability assay (MTT), dark and blue light; format: cell-based, Human; conditions: for Photosensitizing index (PI) A549: dark vs blue light 458 nm; for SI (vs NIH-3T3) A549 Blue: blue light 458 nm
Summary of the method: as §1

[8] = test system: T24 bladder cancer cells; test: Cell viability assay (MTT), dark and blue light; format: cell-based, Human; conditions: for Photosensitizing index (PI) T24: dark vs blue light 458 nm
Summary of the method: as §1

[9] = 8 h in the dark, blue light 458 nm 10 min, then dark up to 72 h, read-out: GI50 MC3T3 Blue
[10] = in the dark, 72 h, read-out: GI50 MC3T3 Dark
[11] = 8 h in the dark, blue light 458 nm 10 min, then dark up to 72 h, read-out: GI50 NIH-3T3 Blue
[12] = in the dark, 72 h, read-out: GI50 NIH-3T3 Dark
[13] = 8 h in the dark, blue light 458 nm 10 min, then dark up to 72 h, read-out: GI50 A549 Blue
[14] = in the dark, 72 h, read-out: GI50 A549 Dark
[15] = 8 h in the dark, blue light 458 nm 10 min, then dark up to 72 h, read-out: GI50 T24 Blue
[16] = in the dark, 72 h, read-out: GI50 T24 Dark

Row | Structure (SMILES) | Log P [1] | λmax (nm) ε (M^−1 · cm^−1) [2] | ΦP emission phosphorescence quantum yield [3] | τ1 emission lifetime [4] | GI50 [5, 9] | Photosensitizing index (PI) MC3T3 [5] | GI50 [5, 10] | GI50 [6, 11] | Photosensitizing index (PI) NIH-3T3 [6] | GI50 [6, 12] | GI50 [7, 13] | SI (vs MC3T3) A549 Dark [7] | Photosensitizing index (PI) A549 [7] | GI50 [7, 14] | GI50 [8, 15] | Photosensitizing index (PI) T24 [8] | GI50 [8, 16] | λem [3] | SI (vs NIH-3T3) A549 Blue [7] | SI (vs NIH-3T3) A549 Dark [7] | also measured
1 | F[P-](F)(F)(F)(F)F.O=C(CCCC[C@@H]1SC[C@@H]2NC(=O)N[C@@H]21)NCCCn1cc[n+]2[c]1[Ir-3]13([c]4ccccc4-c4sc5ccccc5[n+]41)([c]1ccccc1-c1sc4ccccc4[n+]13)[n+]1ccccc1-2 [I-k] | 0.87 ± 0.03 | 321 (25835), 372 (sh) (7480), 406 (6130) nm (M^−1 · cm^−1) | 7.0% | 322 ns | 19.2 µM | 1.3 | 25.8 µM | 31.1 µM | 2.4 | 75.8 µM | 1.2 µM | 2.1 | 10.2 | 12.2 µM | 0.97 µM | 19.3 | 18.7 µM | – | – | – | SI (vs MC3T3) T24 Dark ([8]; dark): 1.4; SI (vs NIH-3T3) T24 Dark ([8]; dark): 4.1
2 | F[P-](F)(F)(F)(F)F.O=C(NCCCn1cc[n+]2[c]1[Ir-3]13([c]4ccccc4-c4sc5ccccc5[n+]41)([c]1ccccc1-c1sc4ccccc4[n+]13)[n+]1ccccc1-2)[c-]1cccc1.[Fe+2].c1cc[cH-]c1 [IV-k] | – | 321 (24910), 371 (sh) (7200), 407 (5940) nm (M^−1 · cm^−1) | 0.08% | 212 ns | – | – | – | – | – | – | – | – | – | – | – | – | – | – | – | – | Log P ([1]; n-octanol/water, shake-flask, mean of at least three determinations): 0.74 ± 0.05; GI50 ([5]; MC3T3, blue light, read-out: GI50): 5.1 µM; Photosensitizing index (PI) ([5]; MC3T3, dark vs blue light): 2.3; GI50 ([5]; MC3T3, dark, read-out: GI50): 10.2 µM and 11.6 µM; GI50 ([6]; NIH-3T3, blue light, read-out: GI50): 11.6 µM; Photosensitizing index (PI) ([6]; NIH-3T3, dark vs blue light): 1.6; GI50 ([6]; NIH-3T3, dark, read-out: GI50): 18.7 µM; SI (vs MC3T3) ([7]; A549, blue light): 15.0; SI (vs NIH-3T3) ([7]; A549, blue light): 34.2; GI50 ([7]; A549, blue light, read-out: GI50): 0.34 µM; SI (vs MC3T3) ([7]; A549, dark): 2.7; Photosensitizing index (PI) ([7]; A549, dark vs blue light): 11.2; GI50 ([7]; A549, dark, read-out: GI50): 3.8 µM; SI (vs MC3T3) ([8]; T24, blue light): 27.0; SI (vs MC3T3) ([8]; T24, dark): 11.4; SI (vs NIH-3T3) ([8]; T24, dark): 20.9; Photosensitizing index (PI) ([8]; T24, dark vs blue light): 4.7
3 | F[P-](F)(F)(F)(F)F.O=C(CCCC[C@@H]1SC[C@@H]2NC(=O)N[C@@H]21)NCCCn1cc[n+]2[c]1[Ir-3]13([c]4ccccc4-c4ccc5ccccc5[n+]41)([c]1ccccc1-c1ccc4ccccc4[n+]13)[n+]1ccccc1-2 [I-g] | 1.26 ± 0.04 | 336 (19000), 437 (4600) nm (M^−1 · cm^−1) | <0.1% | 203 ns | 31.4 µM | 1.8 | 85.2 µM and 55.2 µM | 81.7 µM and 61.7 µM | 1.8 | 110 µM | 1.5 µM | 6.1 | 6.1 | 9.1 µM | 1.1 µM | 16.9 | 18.6 µM | 593-652 nm | 41.1 | 12.1 | SI (vs NIH-3T3) T24 Blue ([8]; blue light 458 nm): 58.1
4 | COC(=O)c1ccc2[n+](c1)[Ir-3]13([c]4ccccc4-2)([c]2ccccc2-c2ccc(C(=O)OC)c[n+]21)[c]1n(CCCNC(=O)CCCC[C@@H]2SC[C@@H]4NC(=O)N[C@@H]42)cc[n+]1-c1cccc[n+]13.F[P-](F)(F)(F)(F)F [I-e] | 0.25 ± 0.04 | 310 (sh) (19500), 365 (sh) (4690), 432 (4155) nm (M^−1 · cm^−1) | 3.7% | 224 ns | 41.1 µM | 1.4 | 58.8 µM and 56.8 µM | 135 µM | >1.9 | > 250 µM | 21.6 µM | – | 5.0 | 107 µM | 5.6 µM | 17.2 | 96 µM | 511-550 nm | 6.3 | >2.3 | –
